Results on six molecules are retold here after patent US20200345728A1, “COMPOSITIONS AND METHODS FOR TREATMENT OF ATHEROSCLEROSIS” (NovMetaPharma Co., Ltd., priority 2019, published 2020).

The subject of series [1] is RAW264.7 macrophage cells. The series can be described thus: FACS analysis of cell viability in M2 activated RAW264.7 cultures. Type of series: cell-based. The method, then: RAW264.7 macrophage cells, untreated and treated with IL-4 (20 ng/ml), were stained with 1:1000 diluted viability stain (BD Horizon Fixable Viability Stain 660). Cells were analyzed by FACS and gated for unstained (viable) and stained (non-viable) populations.
In general terms: In flow cytometry, cells or beads pass a laser one at a time.

In series [2] the test system is RAW264.7 macrophage cells. Put plainly: Charcoal phagocytosis assay in activated RAW264.7 macrophage cells. Type of series: cell-based. The following applies: during M1 activation (1 μg/ml LPS/20 ng/ml IFN); 50 μM CHP, 10 μM Zn. As for the experimental part: RAW264.7 macrophage cells (ATCC® TIB-71) were activated to either inflammatory M1 macrophage phenotype (with 1 μg/ml LPS/20 ng/ml IFN) or to the anti-inflammatory M2 phenotype (with 20 ng/ml IL-4) in the presence or absence of Cyclo-Z (50 μM CHP/10 μM Zn) treatment. Charcoal dust was added to the culture as a marker of M1 phagocytosis activity.
To compare between CHP and Zinc effects in Cyclo-Z on charcoal binding activities, we determined the phagocytosis activity of CHP (50 μM CHP) or Zinc (10 μM Zn) alone or Cyclo-Z during activation of M1 macrophages (with 1 μg/ml LPS/20 ng/ml IFN).

A short description of series [3]: DPPH colorimetric anti-oxidant assay. It is filed as biochemical. The note with it: incubation with DPPH, various concentrations. An excerpt:
In this colorimetric assay, DPPH functions as a free radical that can be inactivated by anti-oxidant compounds resulting in loss of color. […] Zinc was not tested alone since it was not completely soluble in the organic solvents needed for the assay. Ascorbic Acid functions as an antioxidant positive control.
A general note: The DPPH test is a chemical assay of radical scavenging.

The test system of series [4] is ROS in VSMCs. Put plainly: ROS generation in VSMCs analyzed by FACS (CM-H2CFDA fluorescence). It is filed as cell-based. The following applies: 45 minutes. The method, then: (§1) VSMC were seeded (1.25×10^5 cells/well in 12-well plates) and incubated at 37° C. for 24 hr. Cultures were then subjected to various treatments (as shown in Table 1) to induce ROS for 45 minutes (at 37° C.) along with 10 μM CM-H2CFDA (Molecular Probes, Inc., Eugene, Oreg.). CM-H2DCFDA is a chloromethyl derivative of H2DCFDA, useful as an indicator for ROS in cells. Subsequent oxidation of CM-H2CFDA yields a fluorescent adduct that is trapped inside the cell. At the end of treatment period cells were trypsinized, washed, and analyzed by FACS for ROS (CM-H2CFDA fluorescence) and viability using a viability stain (BD Horizon Fixable Viability Stain 660; BD Biosciences, San Jose, Calif.).

The subject of series [5] is VSMCs. Put plainly: Cell viability in VSMCs analyzed by FACS (viability stain). Type of series: cell-based. The following applies: 45 minutes. As for the experimental part:
as §1

In series [6] the test system is mouse spleen cells (B-cell activation). The series can be described thus: B-cell activation in mouse spleen cells. Type of series: cell-based. The note with it: alone, 4 days; LPS 1 μg/ml; Cyclo-Z 50 μM CHP/10 μM Zn. The method, then:
Mouse spleen cells were isolated from wild type C57BL/6J mice (The Jackson Laboratory; strain 000632) and plated under standard cell culture conditions in the presence or absence of Cyclo-Z (50 μM CHP/10 μM zinc) and/or LPS for 4 days. Nodules indicating increased B-cell activation and proliferation were visualized by microscopy.

Where [7] appears, read: added with IL-4 (20 ng/ml), M2 activated.

For `[Cl-].[Cl-].[Zn+2]` [Zinc, ZnCl2], in series [1] (setting [7]), the “Percent Non-Viability” value stood at 33.49% and the “Percent Viability (Stained)” value is 58.47%. In addition, in series [2], the “charcoal uptake (phagocytosis activity)” value is “somewhat effective”.
Consider “IL-4: Interleukin-4, cytokine used to activate macrophages to M2 phenotype”, for which the “Percent Non-Viability” value in series [1] (IL-4 (20 ng/ml) alone) is 17.63%.
`O=C1N[C@@H](Cc2cnc[nH]2)C(=O)N2CCC[C@@H]12` [CHP, cyclo-Hispro]: in series [3], the “anti-oxidant activity (DPPH)” value is listed as “concentration dependent anti-oxidant activity”. In series [1] (setting [7]), the “Percent Non-Viability” value was determined as 14.13% and the “Percent Viability (Stained)” value turned out to be 73.63%. Further, the “charcoal uptake (phagocytosis activity)” value in series [2] is reported as “did not show any effects”.
As to `OC[C@H]1OC(O)[C@H](O)[C@@H](O)[C@@H]1O` (stereo partly shown) [HG], the “ROS Population” value in series [4] (HG (50 mM) alone) and in series [4] (HG (100 mM) alone) was 0.04 each time. For the same molecule, the entries for the “Viability Population” value in series [5] (HG (50 mM) alone) and in series [5] (HG (100 mM) alone) were 61.63 and 63.9, respectively.
Consider lipopolysaccharide [LPS], for which the “ROS Population” value in series [4] (LPS alone) turned out to be 0.09. The “Viability Population” value in series [5] (LPS alone) came out at 75.81. In addition, in series [6], the “B-cell activation/proliferation (nodules)” value is “induced some B-cell activation/proliferation”.
Turning to `OO` [H2O2, hydrogen peroxide], the entries for the “ROS Population” value in series [4] (H2O2 (5 μL) alone) and in series [4] (H2O2 (10 μL) alone) were 81.33 and 50.63, respectively. Also, the entries for the “Viability Population” value in series [5] (H2O2 (5 μL) alone) and in series [5] (H2O2 (10 μL) alone) were 22.31 and 7.33, respectively.
